Measured values as given in PMC5321639, “Design and pharmacodynamics of recombinant NZ2114 histidine mutants with improved activity against methicillin-resistant Staphylococcus aureus” (AMB Express, 2017).
Converted amounts (≈) assume the structure as drawn. Like-named read-outs stand apart in the source and are kept apart here. Where a SMILES comes first, the peptide text is derived from it. Bridges are numbered along the chain shown (N, C = ends).

Experiments:
S. aureus ATCC43300 [1] = assay: microbe, parasite or virus in culture; assay type: cell-based, Staphylococcus aureus; details: for MICc (MIC of the most effective combination): checkerboard; for MIC: read-out: MICa (MIC of drug alone); for FIC: MICc/MICa
Experimental: The MIC values of four antibiotics (vancomycin, ampicillin, rifampicin and ciprofloxacin) to S. aureus ATCC43300 were tested as the MIC assay described above. The peptide solutions and antibiotics were diluted twofold with the final concentrations ranging from 1/16 to 8× MIC, and added into 96-well plates in a checkerboard fashion (White et al. [1996]). The results of combination were evaluated by calculating the fractional inhibitory concentration index (FICI) of each combination. FIC of H1, H2, H3=MIC of H1, H2, H3, respectively, in combination with antibiotic/MIC of H1, H2, H3 alone; FIC of antibiotics=MIC of antibiotic in combination with peptide/MIC of antibiotic alone; FICI = FIC of H1, H2, H3+ antibiotic, respectively. The result of interaction between two antimicrobial drugs was determined according to: FICI ≤ 0.5 refers to synergy, 0.5 < FICI ≤ 1 refers to additivity, 1 < FICI ≤ 4 refers to indifference, and FICI > 4 is defined as antagonism (Tsuji and Rybak [2006]).

S. aureus ATCC43300 [2] = assay: Effect of NaCl concentration on activity (MIC); assay type: cell-based, Staphylococcus aureus
Experimental: (§1) The peptide solutions were diluted twofold with the range of final concentrations were 0.015–32 µg/ml (0.003–7.273 µM) for purified H1, H2, H3, H6, and H8. The test strains were grown in MHB medium at 37 °C to an OD600 of 0.4 and diluted to 1 × 10^5 CFU/ml. The 10 µl peptide and 90 µl cell suspension were added into each well. All assays were performed in triplicate. The antimicrobial activity of NZ2114 and vancomycin were tested as positive controls. The plates were incubated at 37 °C for 18–24 h. MIC was defined as the lowest peptide concentration of ones at which there was no visible growth (Tian et al. [2009]).
(§2) The effect of pH, temperature, NaCl concentration and proteinase on the activity of peptides was evaluated. Peptides were diluted twofold, then adjusted to a pH range from 2.0 to 10.0 and incubated at 37 °C for 4 h. The thermal stability of purified peptides was determined after 1-h incubation of peptides at 4, 20, 40, 60, 80 and 100 °C in deionized water, respectively. Aliquots of peptides were incubated in various proteinases solutions [pepsin (pH 2.0), trypsin (pH 8.0), proteinase K (pH 7.0)] at a ratio of 1:10, w/w (proteinase: peptide) at 37 °C for 3 h. For the ion stability, peptides were incubated in 50, 100, 200, 300, 400, 500 mM sodium chloride solutions, respectively. Other methods and conditions were prepared as the MIC assay described above (Li et al. [2015]; Qu et al. [2016]).

S. aureus ATCC43300 [3] = assay: Postantibiotic effect (PAE); assay type: cell-based, Staphylococcus aureus; details: 2 h exposure at 37 °C, 1 × 10^8 CFU/ml, drug removed by 1:10^3 dilution, mean ± SD, n = 3
Experimental: After 2 h, the drug was removed by diluting 1:10^3 into the MHB and incubated at 37 °C, 250 rpm. The sample was taken to plate counting every 1 h until the bacterial cultures become turbid. The PAE was calculated by the following formula: PAE = T − C, where T is the time needed for the count of CFU in the test culture to increase 1 log10 (10-fold) above the 0 h and C is the time needed for the count of CFU in the untreated control culture to increase 1 log10 above the 0 h (Giguère et al. [2012]).

S. aureus ATCC43300 [4] = assay: Effect of temperature on activity (MIC); assay type: cell-based, Staphylococcus aureus; details: then MIC assay
Experimental: as §1, §2

S. aureus ATCC43300 [5] = assay: Effect of pH on activity (MIC); assay type: cell-based, Staphylococcus aureus; details: then MIC assay
Experimental: as §1, §2

S. aureus ATCC43300 [6] = assay: Effect of proteinases on activity (MIC); assay type: cell-based, Staphylococcus aureus; details: 1:10 w/w proteinase:peptide, 37 °C for 3 h, then MIC assay
Experimental: as §1, §2

[7] = system: S. aureus ATCC43300 (MRSA); assay: Time-kill curve assay; assay type: cell-based, Staphylococcus aureus; details: for time for bacterial counts to decrease to 2 log10 CFU/ml (a 99.9% reduction): start 1 × 10^5 CFU/ml, 37 °C, triplicate
Experimental: Bacterial culture (S. aureus ATCC43300) was diluted to 1 × 10^5 CFU/ml and H1, H2, and H3 were added. […] The mixture was cultivated at 250 rpm, 37 °C. The 100-µl samples were taken from each flask at 0, 2, 4, 6, 8, 12 and 24 h of incubation, and serial dilutions of samples were plated to count visible colonies. Vancomycin was tested in the same way as a positive control and the culture without antimicrobial agent as a negative control (Xiong et al. [2011]). All experiments were performed in triplicate.

[8] = conventional antibiotics; ref Pankuch and Appelbaum [2009b]; Pankuch et al. [2003]; Watanabe et al. [1997]; cited from earlier work
Text: The PAE is a very important pharmacodynamics parameter in choosing of antibiotic dosage regimens in clinical use (Pankuch and Appelbaum [2009a]).

CC[C@H](C)[C@@H]1NC(=O)[C@H](CO)NC(=O)[C@H](CCCCN)NC(=O)[C@@H]2CSSC[C@@H](C(=O)N[C@@H](Cc3ccc(O)cc3)C(=O)O)NC(=O)[C@H](CCCCN)NC(=O)[C@@H]3CSSC[C@H](NC(=O)[C@H](CCCNC(=N)N)NC(=O)[C@H](CC(C)C)NC(=O)[C@H](CC(=O)O)NC(=O)[C@H](CC(=O)O)NC(=O)[C@H](CCC(=O)O)NC(=O)[C@H](CC(N)=O)NC(=O)[C@H](Cc4c[nH]c5ccccc45)NC(=O)[C@@H]4CCCN4C(=O)CNC(=O)[C@H](CC(N)=O)NC(=O)[C@@H](NC(=O)CNC(=O)[C@H](Cc4ccccc4)NC(=O)CN)CSSC[C@H](NC(=O)[C@H](Cc4ccc(O)cc4)NC(=O)CNC(=O)CNC(=O)[C@H](CCCCN)NC(=O)[C@H](Cc4ccc(O)cc4)NC(=O)CNC(=O)[C@H](CCCCN)NC1=O)C(=O)N[C@@H](C)C(=O)N[C@@H](CCCCN)C(=O)NCC(=O)NCC(=O)N[C@@H](Cc1ccccc1)C(=O)N[C@@H](C(C)C)C(=O)N3)C(=O)N[C@@H](CCCCN)C(=O)N[C@@H](CC(N)=O)C(=O)N[C@@H](Cc1c[nH]cn1)C(=O)N2 [H1] (H-GFGCNGPWNEDDLRCKNHCKSIKGYKGGYCAKGGFVCKCY-OH; disulfide 4-30, 15-37, 19-39; N-terminus and C-terminus assumed)
MICc (MIC of the most effective combination) (S. aureus ATCC43300 [1]; in combination with ampicillin): 0.014 µM
MICc (MIC of the most effective combination) (S. aureus ATCC43300 [1]; in combination with ciprofloxacin): 0.028 µM
MICc (MIC of the most effective combination) (S. aureus ATCC43300 [1]; in combination with rifampicin): 0.056 µM
MICc (MIC of the most effective combination) (S. aureus ATCC43300 [1]; in combination with vancomycin): 0.056 µM
MIC (S. aureus ATCC43300 [1]; drug alone): 0.056 µM
MIC in 50 mM NaCl (S. aureus ATCC43300 [2]; incubated in 50 mM sodium chloride solution): 0.057 µM (≈ 0.251 µg/mL)
MIC in 100 mM NaCl (S. aureus ATCC43300 [2]; incubated in 100 mM sodium chloride solution): 0.057 µM (≈ 0.251 µg/mL)
MIC in 200 mM NaCl (S. aureus ATCC43300 [2]; incubated in 200 mM sodium chloride solution): 0.057 µM (≈ 0.251 µg/mL)
MIC in 300 mM NaCl (S. aureus ATCC43300 [2]; incubated in 300 mM sodium chloride solution): 0.057 µM (≈ 0.251 µg/mL)
MIC in 400 mM NaCl (S. aureus ATCC43300 [2]; incubated in 400 mM sodium chloride solution): 0.057 µM (≈ 0.251 µg/mL)
MIC in 500 mM NaCl (S. aureus ATCC43300 [2]; incubated in 500 mM sodium chloride solution): 0.057 µM (≈ 0.251 µg/mL)
PAE (S. aureus ATCC43300 [3]; 1× MIC): 0.90 ± 0.04 h
PAE (S. aureus ATCC43300 [3]; 2× MIC): 2.94 ± 0.07 h
MIC after incubation at 4 °C (S. aureus ATCC43300 [4]; 1 h at 4 °C in deionized water): 0.057 µM (≈ 0.251 µg/mL)
MIC after incubation at 20 °C (S. aureus ATCC43300 [4]; 1 h at 20 °C in deionized water): 0.057 µM (≈ 0.251 µg/mL)
MIC after incubation at 40 °C (S. aureus ATCC43300 [4]; 1 h at 40 °C in deionized water): 0.057 µM (≈ 0.251 µg/mL)
MIC after incubation at 60 °C (S. aureus ATCC43300 [4]; 1 h at 60 °C in deionized water): 0.057 µM (≈ 0.251 µg/mL)
MIC after incubation at 80 °C (S. aureus ATCC43300 [4]; 1 h at 80 °C in deionized water): 0.057 µM (≈ 0.251 µg/mL)
MIC after incubation at pH2 (S. aureus ATCC43300 [5]; pH 2, 37 °C for 4 h): 0.057 μM
MIC after incubation at pH4 (S. aureus ATCC43300 [5]; pH 4, 37 °C for 4 h): 0.057 μM
MIC after incubation at pH6 (S. aureus ATCC43300 [5]; pH 6, 37 °C for 4 h): 0.057 μM
MIC after incubation at pH8 (S. aureus ATCC43300 [5]; pH 8, 37 °C for 4 h): 0.057 μM
MIC after Proteinase K (S. aureus ATCC43300 [6]; proteinase K (pH 7.0)): 0.057 µM (≈ 0.251 µg/mL)
MIC after Trypsin (S. aureus ATCC43300 [6]; trypsin (pH 8.0)): 0.057 µM (≈ 0.251 µg/mL)
incubation time after which regrowth occurred ([7]; 1× MIC): 8 h
time for bacterial counts to decrease to 2 log10 CFU/ml (a 99.9% reduction) ([7]; 1× MIC): 6 h
incubation time after which regrowth occurred ([7]; 2× MIC): 12 h
bacterial counts at 24 h after regrowth ([7]; 2× MIC, 24 h): 3.40 log10 CFU/ml
time for bacterial counts to decrease to 2 log10 CFU/ml (a 99.9% reduction) ([7]; 2× MIC): 1.5 h
time for bacterial counts to decrease to 2 log10 CFU/ml (a 99.9% reduction) ([7]; 4× MIC): 1 h

NCC[C@H](O)C(=O)N[C@@H]1C[C@H](N)[C@@H](O[C@H]2O[C@H](CN)CC[C@H]2N)[C@H](O)[C@H]1O[C@H]1O[C@H](CO)[C@@H](O)[C@H](N)[C@H]1O [arbekacin]
PAE [8]: 3.0 to 3.2 h

CO[C@H]1/C=C/O[C@@]2(C)Oc3c(C)c(O)c4c(O)c(c(/C=N/N5CCN(C)CC5)c(O)c4c3C2=O)NC(=O)/C(C)=C\C=C\[C@H](C)[C@H](O)[C@@H](C)[C@@H](O)[C@@H](C)[C@H](OC(C)=O)[C@@H]1C [rifampicin]
MIC (S. aureus ATCC43300 [1]; Staphylococcus aureus, ATCC43300): 0.019 µM
MICc (MIC of the most effective combination) (S. aureus ATCC43300 [1]; in combination with H1): 0.019 µM
MICc (MIC of the most effective combination) (S. aureus ATCC43300 [1]; in combination with H2): 0.019 µM
MICc (MIC of the most effective combination) (S. aureus ATCC43300 [1]; in combination with H3): 0.038 µM
FIC (S. aureus ATCC43300 [1]; in combination with H1): 1
FIC (S. aureus ATCC43300 [1]; in combination with H2): 1
FIC (S. aureus ATCC43300 [1]; in combination with H3): 2

CN(C)c1cc(NC(=O)CNC(C)(C)C)c(O)c2c1C[C@H]1C[C@H]3[C@H](N(C)C)C(O)=C(C(N)=O)C(=O)[C@@]3(O)C(O)=C1C2=O [tigecycline]
PAE [8]: 3.2 h

daptomycin
PAE [8]: 2.0 h
